Data set [1] can be described thus: Body weight, food intake and physical activity of treated mice. The data set is classed as in vivo. As to conditions: treated mice vs control mice. The protocol:
Animal studies. Genetically diabetic db/db mice or obese ob/ob mice were purchased from Jackson Lab. Male mice of 2-3 months of age were used. Unless otherwise stated, 10 mice (N=10) were used per group. α-PGG was either orally administered or intraperitoneally (ip) injected in the form of an aqueous solution at 20 mg/kg body weight with a 1-cc sterile plastic syringe. At different times after the α-PGG administration, blood or plasma was collected from the tail vein for measurement of glucose and insulin concentrations using commercial kits. Vehicle (aqueous solution) treated mice were used as controls and were statistically compared with the α-PGG treated mice. All animal studies were conducted in accord with the Ohio University guidelines for the use and care of laboratory animals.

In data set [2] the target is T1, IR isolated from CHO-IR cells (Homo sapiens, UniProt P06213).
T1 construct: expressed in transfected cells; host or cells: CHO-IR cells (from Dr. Alan Saltiel's lab)
The experiment in a line: 125I-insulin displacement assay in WGA-coated wells. It counts as binding. As to conditions: 1 nM 125I-labeled insulin; read-out: IC50 for displacement of IR-bound radioactive insulin. The protocol: (§1) (A) α-PGG binds to IR as measured by a SPR (28). Increasing concentrations of α-PGG was injected into the system to interact with the pure IR attached to the gold surface of the biosensor chip. The binding, represented in arbitrary response units, was automatically plotted against α-PGG concentrations to generate the binding curve. (B) Insulin binding to IR in the absence or presence of α-PGG. Increasing amounts of ^125I-labeled insulin were added to WGA-coated wells containing pre-bound IR isolated from CHO-IR cells in the absence of α-PGG or in the presence of 30 μM or 50 μM of α-PGG. After overnight incubation, removal of excessive ligands, and washing, the bound radioactive insulin was measured. (C) Insulin displacement by α-PGG. Fixed amounts of radioactive insulin (1 nM) were added to each of the WGA-coated wells pre-bound with IR. Increasing amounts of α-PGG were added to the wells to displace the ^125I-labeled insulin. […]
(§2) Insulin receptor binding studies. […] After sensograms of α-PGG-IR binding at different concentrations were recorded, the binding affinity was analyzed using BIAevaluation software. […] The bound ligand was detached (eluted) from the receptor with 2×200 μL 0.2M Glycine pH 2.8, and measured for its radioactivity using a Beckman Coulter LS 6400 Multi-Purpose Scintillation Counter. […] The receptor binding results were analyzed with the software GraphPad Prism.

The target in data set [3] is insulin (Bos taurus, UniProt P01317). The experiment in a line: Binding of α-PGG to insulin.
For data set [4], the system named is 3T3-L1 adipocytes. The experiment in a line: Glucose uptake assay in 3T3-L1 adipocytes. It counts as cell-based. The protocol:
Chemical synthesis yields both the α- and β-anomers of PGG. (B) Glucose transport stimulatory activity (13, 14) of PGG was assessed by incubating adipocytes in 6-well plates with insulin or PGG for 15 min followed by the addition of [^3H]-2-deoxy-D-glucose for 10 min before quantifying uptake (13, n=3, mean±SD, Two way-ANOVA, * P<0.05; ** P<0.01). α-PGG (●); β-PGG (□); insulin (∘). (C) Glucose transport induced by insulin in the presence of α-PGG. One […] of insulin was added to adipocytes in the presence of increasing amounts of α-PGG. After induction, radioactive glucose was added, and the glucose taken up by the cells was counted.
Reagents, compound synthesis, and glucose uptake assay. Bovine insulin was purchased from Sigma. PGG, in an approximate 1:1 mixture of α- and β-PGG, was synthesized from glucose in the non-radioactive form as described (22). The identity of the compounds was confirmed by MS and NMR. The compounds were dissolved in double distilled water (ddH2O), filter sterilized, and stored as a 10 mM aqueous stock solution at −20° C. The stock solutions were diluted to final concentrations with sterile ddH2O. Glucose uptake assays in 3T3-L1 adipocytes induced by PGG were performed as described (13).

Data set [5] concerns the target T1, IR isolated from CHO-IR cells. Nature of the data set: 125I-insulin saturation binding to IR in WGA-coated wells. The conditions noted are these: 30 μM or 50 μM α-PGG. The protocol:
as §1, §2

This is an account of results in patent US7888042B2, “Methods for identifying insulin mimetics” (Ohio University, priority 2005, dated 2011).

T1 sequence (P06213 28-758 limits assumed): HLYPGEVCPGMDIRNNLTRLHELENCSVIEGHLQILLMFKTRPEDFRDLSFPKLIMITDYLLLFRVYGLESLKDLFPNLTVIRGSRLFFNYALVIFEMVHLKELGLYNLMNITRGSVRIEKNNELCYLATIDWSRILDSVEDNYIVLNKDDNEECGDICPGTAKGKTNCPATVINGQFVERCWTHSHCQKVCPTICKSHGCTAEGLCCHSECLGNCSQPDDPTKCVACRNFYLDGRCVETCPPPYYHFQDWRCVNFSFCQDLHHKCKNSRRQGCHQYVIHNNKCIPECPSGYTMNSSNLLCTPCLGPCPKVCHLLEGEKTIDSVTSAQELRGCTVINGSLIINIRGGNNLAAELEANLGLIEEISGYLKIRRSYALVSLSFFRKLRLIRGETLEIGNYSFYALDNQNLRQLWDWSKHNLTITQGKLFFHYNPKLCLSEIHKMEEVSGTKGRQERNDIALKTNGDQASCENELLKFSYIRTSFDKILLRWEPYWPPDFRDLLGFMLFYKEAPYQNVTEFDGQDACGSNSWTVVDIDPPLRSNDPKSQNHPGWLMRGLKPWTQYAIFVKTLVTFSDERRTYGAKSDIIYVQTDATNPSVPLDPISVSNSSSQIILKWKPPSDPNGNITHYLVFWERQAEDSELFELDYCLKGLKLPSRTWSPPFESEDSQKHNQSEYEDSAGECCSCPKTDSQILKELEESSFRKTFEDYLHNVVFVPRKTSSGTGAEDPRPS
T1 sequence (P06213 763-1382 partner limits assumed): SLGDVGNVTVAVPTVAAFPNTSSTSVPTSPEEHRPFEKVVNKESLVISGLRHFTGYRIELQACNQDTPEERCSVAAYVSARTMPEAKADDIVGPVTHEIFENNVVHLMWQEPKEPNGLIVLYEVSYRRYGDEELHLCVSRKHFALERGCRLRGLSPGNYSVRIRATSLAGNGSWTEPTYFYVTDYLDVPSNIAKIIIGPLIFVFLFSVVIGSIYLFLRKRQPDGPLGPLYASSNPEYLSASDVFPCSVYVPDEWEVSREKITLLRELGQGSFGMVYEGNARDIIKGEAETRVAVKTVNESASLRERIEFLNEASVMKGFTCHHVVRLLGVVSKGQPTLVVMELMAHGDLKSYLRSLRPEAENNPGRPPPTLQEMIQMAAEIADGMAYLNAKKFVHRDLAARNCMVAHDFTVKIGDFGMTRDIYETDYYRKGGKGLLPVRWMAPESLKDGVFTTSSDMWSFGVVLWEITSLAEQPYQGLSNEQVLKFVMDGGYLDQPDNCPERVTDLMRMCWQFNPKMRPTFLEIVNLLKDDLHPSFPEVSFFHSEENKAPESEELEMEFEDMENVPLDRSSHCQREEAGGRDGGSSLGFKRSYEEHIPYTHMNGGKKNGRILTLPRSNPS
Chain of insulin (P01317 25-54 limits assumed): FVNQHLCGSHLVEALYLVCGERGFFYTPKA

The IC50 is the concentration needed to halve the response being measured. In general, EC50 refers to the concentration at which the effect is half-maximal. `O=C(OC[C@H]1O[C@H](OC(=O)c2cc(O)c(O)c(O)c2)[C@H](OC(=O)c2cc(O)c(O)c(O)c2)[C@@H](OC(=O)c2cc(O)c(O)c(O)c2)[C@@H]1OC(=O)c1cc(O)c(O)c(O)c1)c1cc(O)c(O)c(O)c1` [α-PGG, alpha 1,2,3,4,6-penta-O-galloyl-D-Glucopyranose]: in data set [1], the body weight entry was “No significant changes”, the food intake entry is reported as “No significant changes” and the physical activity entry is listed as “No significant changes”. Besides, in data set [2], the IC50 came to 10 ± 1 µM. Also, the binding to insulin entry in data set [3] is “did not bind to insulin”. The “induction of glucose transport” value in data set [4] (3T3-L1 adipocytes, [3H]-2-deoxy-D-glucose uptake, 15 min incubation) is “induced glucose transport in adipocytes in a dose-dependent manner”. The “glucose transport activity, more active than β-PGG” value in data set [4] (15-30 μM concentration range, P<0.05 at 15 μM, P<0.01 at 30 μM) is given as 10-20%. Also, in data set [4] (Mus musculus, 3T3-L1, estimated, printed 13 μM±2 μM, read-out: EC50 for glucose transport activity), the EC50 was 13 µM. Besides, the “glucose transport induced by insulin on addition of α-PGG” value in data set [4] (insulin plus increasing amounts of α-PGG) is reported as “reduced the glucose transport activity induced by insulin towards that of α-PGG”. Moreover, the “maximal binding (Bmax) for insulin” value in data set [5] is on record as “reduced in a dose-dependent manner”.
